# Key:
# Conditions in all cases: 72 h
# U2OS [1] = test: drug sensitivity score (DSS) for viability; higher = more toxic; extreme values may be limits of the assay
# Calu-3 [2] = test: as above
# HepG2 [3] = test: as above
# Vero E6 [4] = test: as above
# Caco-2 [5] = test: as above
# U2OS [6] = test: relative viability EC50 (midpoint between 100% and the lowest measured viability); higher = less toxic
# Vero E6 [7] = test: as above
# Caco-2 [8] = test: as above
# U2OS [9] = test: cell viability relative to DMSO; higher = less toxic
# Calu-3 [10] = test: as above
# HepG2 [11] = test: as above
# Vero E6 [12] = test: as above
# Caco-2 [13] = test: as above
# Calu-3 [14] = test: relative viability EC50 (midpoint between 100% and the lowest measured viability); higher = less toxic
# HepG2 [15] = test: as above
SMILES,drug sensitivity score (U2OS [1]),drug sensitivity score (Calu-3 [2]),drug sensitivity score (HepG2 [3]),drug sensitivity score (Vero E6 [4]),drug sensitivity score (Caco-2 [5]),relative viability EC50 (U2OS [6]) [µM],relative viability EC50 (Vero E6 [7]) [µM],relative viability EC50 (Caco-2 [8]) [µM],cell viability (U2OS [9]; 1 nM) [%],cell viability (U2OS [9]; 10 nM) [%],cell viability (U2OS [9]; 100 nM) [%],cell viability (U2OS [9]; 1000 nM) [%],cell viability (U2OS [9]; 10000 nM) [%],cell viability (Calu-3 [10]; 1 nM) [%],cell viability (Calu-3 [10]; 10 nM) [%],cell viability (Calu-3 [10]; 100 nM) [%],cell viability (Calu-3 [10]; 1000 nM) [%],cell viability (Calu-3 [10]; 10000 nM) [%],cell viability (HepG2 [11]; 1 nM) [%],cell viability (HepG2 [11]; 10 nM) [%],cell viability (HepG2 [11]; 100 nM) [%],cell viability (HepG2 [11]; 1000 nM) [%],cell viability (HepG2 [11]; 10000 nM) [%],cell viability (Vero E6 [12]; 1 nM) [%],cell viability (Vero E6 [12]; 10 nM) [%],cell viability (Vero E6 [12]; 100 nM) [%],cell viability (Vero E6 [12]; 1000 nM) [%],cell viability (Vero E6 [12]; 10000 nM) [%],cell viability (Caco-2 [13]; 1 nM) [%],cell viability (Caco-2 [13]; 10 nM) [%],cell viability (Caco-2 [13]; 100 nM) [%],cell viability (Caco-2 [13]; 1000 nM) [%],cell viability (Caco-2 [13]; 10000 nM) [%],relative viability EC50 (Calu-3 [14]) [µM],relative viability EC50 (HepG2 [15]) [µM]
CCc1cccc(CC)c1NC(=O)N1Cc2[nH]nc(NC(=O)c3ccc(N4CCN(C)CC4)cc3)c2C1,4.4,2.6,5.9,0,1.7,2.22,> 10,> 10,102,97.8,95.4,93.1,40,99.1,93.4,87.6,95,63,102,97.5,93.9,70.5,58.3,96.9,97.5,96.9,95.9,89.3,101,104,98.7,91.8,76.8,,
COc1cc2ncnc(Nc3ccc(Cl)cc3F)c2cc1OC,0.7,9,0,7.4,4.7,> 10,0.434,,97.3,98.5,99.4,96.3,84.1,96.2,103,90.2,61.1,22.6,99.1,107,89.4,109,87.1,100,99.2,87.7,66.8,48.6,91.1,91.6,88.6,81.5,62.4,0.903,> 10
COc1ccc2c(c1)C=C1Cn3c-2c(C2CCCCC2)c2ccc(cc23)C(=O)NS(=O)(=O)N(C)CCOCCN(C)C1=O,0,,0,0,0,> 10,> 10,> 10,102,100,95.8,96.5,95.3,,,,,,97.3,93.5,106,97,105,101,97.3,96.3,102,95.3,93.7,91.1,99,102,94.2,,> 10
Cc1cccc(NC(=O)N[C@@H]2N=C(c3ccccc3)c3ccccc3N(C)C2=O)c1,,,0,0,0,,> 10,> 10,,,,,,,,,,,111,109,110,106,92.5,111,102,109,101,93.6,105,106,100,110,97.2,,> 10
O=C1NC(=O)C(=Cc2ccc(-c3ccc(F)cc3)o2)S1 (stereo in doubt),0,,0,0.1,0,> 10,> 10,> 10,95.3,98.5,99.9,97.5,98.1,,,,,,104,111,99.4,94,100,97.7,102,95.8,91.5,89.1,99.2,97.9,104,95.3,90.4,,> 10
"Cl/C=C\C[N+]12CN3CN(CN(C3)C1)C2 [1-((Z)-3-chloroallyl)-1,3,5,7-tetraazaadamantan-1-ium]",0,,0,0,0,> 10,> 10,> 10,94.5,99.8,94.7,102,97.5,,,,,,102,104,109,102,97.7,99.5,99,99.4,95.5,104,96.3,97.9,91.5,97.4,95.8,,> 10
N#Cc1c(N)nc(SCC(N)=O)c(C#N)c1-c1ccc(OCC2CC2)cc1 [BAY-60-6583],0,,0,0,0,> 10,> 10,> 10,106,100,101,98.7,99.4,,,,,,102,98.1,101,102,92.6,99.4,94.7,93.3,96.6,93.7,104,102,102,95.9,99.1,,> 10
CC[N+](CC)(CC)CCOc1ccc(/C=C/c2ccccc2)cc1 [MG-624],0,0,0.7,0,2.3,> 10,> 10,,101,103,100,104,93,101,103,94.3,95.4,93.3,106,102,102,99.3,78.9,97.9,91,88.6,97.8,97.4,101,100,93.6,89.3,68.7,> 10,> 10
Cc1noc(C)c1-c1cc(O)cc([C@@H](O)c2ccccc2)c1 [OXF-BD-02],3.9,1.8,2.3,8,1.3,,1.48,> 10,97.2,94.2,99.7,86.9,59.3,98.9,95.2,99.8,96.8,70.8,107,104,98.6,101,54.4,102,103,94.6,76.9,17,100,92,99.3,92.5,80.3,,
COc1cc2c(cc1F)C(c1ccccc1Cl)=Nc1c(n[nH]c1C)N2 [RG1530],3.1,4,7.5,1.1,3.5,,> 10,> 10,101,95.8,99.5,85.8,68.6,111,100,98.7,90.5,52.8,98.5,98.5,93.9,63.2,77.6,101,99,99.6,92.5,82.1,94.8,90.8,89.1,81.4,76.1,,
CCOc1cc(C(C)(C)C)ccc1C1=N[C@@](C)(c2ccc(Cl)cc2)[C@@](C)(c2ccc(Cl)cc2)N1C(=O)N1CCN(CCCS(C)(=O)=O)CC1 [RG7112],5.5,2,13.7,7.1,3.1,1.34,1.38,,97.6,98.1,96.9,80.5,44.7,98,94.6,101,89,77.5,95.1,102,86.3,35.2,20.6,106,107,99.3,78.1,28.8,101,95.9,104,94.5,56.6,> 10,0.327
CCOc1cc(C(=O)Nc2ccc(Cl)c(-c3nc4ccccc4[nH]3)c2)cc(OCC)c1OCC [SANT-2],0,1.7,2.5,0,3.4,> 10,> 10,,94.2,98.8,98.3,103,90,103,111,97.5,94,75.7,102,94.4,99.6,90.9,71.5,97.4,93.7,99.4,95.2,92.6,94.6,102,89.4,91.6,57.8,> 10,
C[C@]12CC[C@H]3[C@@H](CCC4=CC(=O)CC[C@@]43C)[C@@H]1CC[C@@H]2O [TESTOSTERONE],0,0,0,0,8.9,> 10,> 10,,102,92.4,98.7,100,94.6,95.2,99.1,102,95.3,92.3,81,91.7,104,104,95.1,97.6,103,98.7,108,87.9,104,97.6,70.8,72.6,79.9,> 10,> 10
Cc1ccc(OCCSc2ncccn2)c(Br)c1 [ZLN024],0,,0,0,0,> 10,> 10,> 10,97.8,105,97.1,101,101,,,,,,105,106,109,99.9,110,106,98.2,107,102,105,99.2,104,94.8,97,102,,> 10

# From the supplement of paper PMC13380429
